Patent US11298367B2, “Prodrugs of substituted triazole derivatives and uses thereof” (Bayer Aktiengesellschaft, priority 2017, dated 2022)
In brackets after ≈: the same amount, converted by molar mass.

Experiments:
[1] = pH stability; type: physicochemical
Protocol: 0.15 mg of the test compound is dissolved in 0.1 ml dimethylsulfoxide and 0.4 ml acetonitrile. For complete dissolution the HPLC vial with the sample solution is shaken and treated with ultrasonic irradiation. Then 1.0 ml of the respective buffer solution is added and the sample is vortexed. The sample solution is analyzed by HPLC to determine the amount of the test compound at a particular time over a period of 24 h at 37° C. The peak areas in percentage are used for quantification.
pH 4.0: Fluka buffer, Order No. 33643 (11.76 g citric acid, 2.57 g sodium chloride and 2.72 g sodium hydroxide).
pH 7.4: 90 g of sodium chloride, 13.61 g of potassium dihydrogen phosphate and 83.35 g of 1 M sodium hydroxide solution are made up to 1 litre with Millipore water and then diluted 1:10. Adjust with phosphoric acid to pH=7.4.
pH 10: Fluka buffer, Order No. 33649 (4.77 g Borax, 0.73 g sodium hydroxide).
15 μl portions of the sample solution are analysed by HPLC at different times (0 h, 1 h, 2 h, 4 h and 24 h) at 37° C. The peak areas in percentage are used for quantification.
The ratios of the peak area (F) at different times in relation to the peak area at the starting point are shown in Table 8A for representative examples: […]

[2] = target: T1, vasopressin V2 receptor (Rattus norvegicus, UniProt Q00788); test: Diuresis investigations in conscious rats kept in metabolism cages; type: in vivo; conditions: Wistar rats, i.v., solvent control = 100%
T1 construct: from tissue; host or cells: whole animal (conscious Wistar rats; renal V2 receptors)
T1 sequence (Q00788 whole entry): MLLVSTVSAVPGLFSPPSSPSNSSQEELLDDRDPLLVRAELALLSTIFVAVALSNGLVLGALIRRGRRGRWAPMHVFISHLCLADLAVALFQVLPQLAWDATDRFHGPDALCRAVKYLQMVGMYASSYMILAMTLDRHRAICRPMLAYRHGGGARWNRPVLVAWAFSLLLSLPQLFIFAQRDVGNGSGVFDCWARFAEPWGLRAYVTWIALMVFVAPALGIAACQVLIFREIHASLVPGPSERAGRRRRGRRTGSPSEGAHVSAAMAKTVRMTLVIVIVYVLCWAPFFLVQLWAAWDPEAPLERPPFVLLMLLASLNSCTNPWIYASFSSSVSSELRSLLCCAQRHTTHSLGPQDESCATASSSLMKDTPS
Protocol: B-8. In Vivo Assay for Detecting Vasopressin V2 Receptor-Meidated Effects: Diuresis Investigations in Conscious Rats Kept in Metabolism Cages
Wistar rats (400-500 g body weight) are kept with free access to feed (Altromin) and drinking water. During the experiment, the animals are kept with free access to drinking water for 7 hours individually in metabolism cages suitable for rats of this weight class (Tecniplast Deutschland GmbH, D-82383 Hohenpeißenberg). At the beginning of the experiment, the animals are administered the test substance in a volume of 1 ml/kg body weight of a suitable solvent (2-Hydroxylpropyl-beta-cyclodextrin) by intravenous application. Control animals only receive solvent. Controls and substance tests are carried out in parallel on the same day. Control groups and substance-dose groups each consist of 6 to 8 animals. During the experiment, the urine excreted by the animals is collected continuously in a receiver at the base of the cage. The volume of urine is determined separately for each animal. Before the beginning of the experiment, the body weight of the individual animals is determined.
Following intravenous administration, in comparison with the solvent control applications, a vasopressin V2 receptor blocking compound would bring about an increased excretion of urine, which is based essentially on an increased excretion of water (aquaresis).

[3] = system: vasopressin (AVP) mediated changes of systemic and renal hemodynamics; test: Acute effects on vasopressin-mediated changes of systemic hemodynamics, renal blood flow and oxygenation in anesthetized rats; type: in vivo, rat; conditions: AVP 50 ng/kg/min + compound 30 μg/kg bolus, mean ± SD, n = 8
Protocol: B-11. Acute Effects on Vasopressin-Mediated Changes of Systemic Hemodynamics, Renal Blood Flow and Oxygenation in Anesthetized Rats
Experiments are performed on male Sprague Dawley rats (Charles River, Deutschland; 350-450 g body weight). In preparation for surgical procedures rats are anesthetized with isoflurane and placed on a heated table to maintain core body temperature at 37° C., assessed using a rectal thermometer inserted. Inhalation anesthesia with isoflurane is applied using a calibrated vaporizer to induce and maintain anesthesia with 5 vol. % and 2 vol. % isoflurane, respectively. A PE50 cannula is placed in the right arteria femoralis for monitoring mean arterial pressure (MAP). Another PE50 catheter is inserted into the vena femoralis for intravenous infusion. The left kidney is exposed by a flank incision and separated from the perirenal attachments. The kidney capsule remains intact. During surgery and the subsequent equilibration and control periods, the rats receive an intravenous infusion of saline (0.9% NaCl) at rate 100 μL/min. Renal measurements of renal blood flow (RBF) are recorded using a laser Doppler blood flow probe (Oxford Optronix, UK) that is attached and stabilized to the surface of the kidney. The probe is inserted into the renal cortex to a depth of 2 mm and another into the renal medulla at 4 mm. The renal blood flow, oxygen and temperature are measured by combined sensor probe (Oxford Optronix, UK). MAP, heart rate (HR), RBF, temperature and oxygen are continuously recorded. After surgery and equilibration, baseline measurements are determined for 20 minutes. The rats are then intravenously infused with vasopressin atrate 50 ng/kg/min in 100 μL/kg for 20 minutes. In the third period, the effect of combined infusion of vasopressin and adual vasopressin receptor antagonist (Example 82 of WO 2016/071212) or a selective V1a antagonist (Example 1) or vehicle that is applied as a bolus in different concentration is determined.

[4] = Solubility; type: physicochemical; conditions: 24 h room temperature, max. 500 μg/ml; for solubility at 24 h: thermodynamic from solid
Protocol: For each substance 0.5-0.6 mg are weighed exactly. In each case, sufficient medium is added to the sample in such a way that a concentration of c=500 μg/ml is obtained. This sample solution is shaken for 24 h at room temperature and 1400 rpm.
A further sample weight of 0.5-0.6 mg is required for the DMSO calibration solution. This sample is filled with DMSO to a concentration of c=600 μg/ml. Two calibration solutions are prepared from this stock solution. In a 2 ml HPLC vial, 1000 μl of DMSO are initially introduced and 34.4 μl of the stock solution are pipetted (c=20 µg/ml). […] of this solution (c=20 μg/ml) are placed in a further 2 ml HPLC vial containing 500 μl of DMSO (c=2.5 μg/ml).
After shaking the test solutions, 230 μl of the supernatant are transferred into a centrifuge tube and centrifuged at 42 000 rpm (223 000 g) for 30 min. 180 μl of the supernatant are then taken and each diluted with DMSO (1:5 sample 1; 1:100 sample 2), and transferred to HPLC vials. The two calibration solutions and the dilute sample solutions are analyzed by HPLC. Quantification is performed over the corresponding peak areas.
Distilled water; trifluoroacetic acid (Merck; 1.08262.0100); acetonitrile (HPLC grade); DMSO (Merck; 8.02912.2500).
Fluka buffer, Order No. 33643 (11.76 g citric acid, 2.57 g sodium chloride and 2.72 g sodium hydroxide).
Fluka buffer, Order No. 33646 (3.52 g potassium dihydrogenphosphate, 7.26 g sodium hydrogen phosphate).
Solution of 6.18 g sodium chloride and 3.96 g sodium dihydrogen phosphate in 1 L distilled water, adjust with 1M aqueous sodium hydroxide solution to pH 7.4.
0.6057 g TRIS was dissolved in 95 ml water, adjust to pH 8.5 with aqueous hydrochloric acid, fill with water until 100 ml volume is reached.

[5] = Tris buffer pH 8.5, pH 8.5, aqueous buffer, pH = 8.5 Tris buffer
[6] = citrate buffer pH 4, pH 4, aqueous buffer, pH = 4 citrate buffer
[7] = phosphate buffer pH 7, pH 7, aqueous buffer, pH = 7.0 buffer

Solubility ([4]; pH = 7.0 buffer) | Structure (SMILES) | % Test Compound after 4 h [F(t = 4 h) × 100/F(t = 0 h)] ([1]; buffer pH 4, 37° C.) [%] | % Test Compound after 24 h [F(t = 24 h) × 100/F(t = 0 h)] ([1]; buffer pH 4, 37° C.) [%] | % Test Compound after 4 h [F(t = 4 h) × 100/F(t = 0 h)] ([1]; buffer pH 7.4, 37° C.) [%] | % Test Compound after 24 h [F(t = 24 h) × 100/F(t = 0 h)] ([1]; buffer pH 7.4, 37° C.) [%] | % Test Compound after 4 h [F(t = 4 h) × 100/F(t = 0 h)] ([1]; buffer pH 10, 37° C.) [%] | % Test Compound after 24 h [F(t = 24 h) × 100/F(t = 0 h)] ([1]; buffer pH 10, 37° C.) [%] | Urinary volume ([2]; dosage 0.3 mg/kg) [% vs. control] | Urinary volume ([2]; dosage 1.0 mg/kg) [% vs. control] | Urinary volume ([2]; dosage 3.0 mg/kg) [% vs. control] | HR (heart rate) [3] [BPM] | MAP (mean arterial blood pressure) [3] [mmHg] | RBF (renal blood flow) [3] [U] | pO2 (partial pressure of renal oxygen) [3] [mmHg] | solubility at 24 h [4, 5] [µg/mL] | solubility at 24 h [4, 6] [µg/mL] | solubility at 24 h [4, 7] [µg/mL]
– | NC(=O)c1nc(Cn2nc(-c3ccc(Cl)cc3)n(C[C@H](OP(=O)(O)O)C(F)(F)F)c2=O)nn1-c1ncccc1C(F)(F)F [Example 1, (2S)-3-[1-({5-Carbamoyl-1-[3-(trifluoromethyl)pyridin-2-yl]-1H-1,2,4-triazol-3-yl}methyl)-3-(4-chlorophenyl)-5-oxo-1,5-dihydro-4H-1,2,4-triazol-4-yl]-1,1,1-trifluoropropan-2-yl Dihydrogen Phosphate] | 100 | 100 | 99 | 99 | 99 | 98 | 127 | 117 | 108 | 276.20 ± 4.46 | 103.50 ± 4.97 | 877.00 ± 43.01 | 14.32 ± 1.13 | > 500 | > 500 | > 500
not detectable | NC(=O)c1nc(Cn2nc(-c3ccc(Cl)cc3)n(C[C@H](O)C(F)(F)F)c2=O)nn1-c1ncccc1C(F)(F)F [Example 4A, 3-({3-(4-Chlorophenyl)-5-oxo-4-[(2S)-3,3,3-trifluoro-2-hydroxypropyl]-4,5-dihydro-1H-1,2,4-triazol-1-yl}methyl)-1-[3-(trifluoromethyl)pyridin-2-yl]-1H-1,2,4-triazole-5-carboxamide] | – | – | – | – | – | – | 95 | 154 | 134 | 270.50 ± 2.89 | 114.80 ± 7.42 | 878.10 ± 96.92 | 15.86 ± 4.01 | 6.7 (≈ 11.6 µM) | 8.7 (≈ 15.1 µM) | –
– | NC(=O)c1nc(Cn2nc(-c3ccc(Cl)cc3)n(C[C@H](OP(=O)(O)O)C(F)(F)F)c2=O)nn1-c1ccccc1C(F)(F)F [Example 10, (2S)-3-[1-({5-Carbamoyl-1-[2-(trifluoromethyl)phenyl]-1H-1,2,4-triazol-3-yl}methyl)-3-(4-chlorophenyl)-5-oxo-1,5-dihydro-4H-1,2,4-triazol-4-yl]-1,1,1-trifluoropropan-2-yl Dihydrogen Phosphate] | 100 | 100 | 100 | 100 | – | – | – | – | – | – | – | – | – | 479 | 454 | > 500
– | NC(=O)c1nc(Cn2nc(-c3ccc(Cl)cc3)n(C[C@H](OP(=O)(O)O)C(F)(F)F)c2=O)nn1-c1ncccc1Cl [Example 17, (2S)-3-[1-{[5-Carbamoyl-1-(3-chloropyridin-2-yl)-1H-1,2,4-triazol-3-yl]methyl}-3-(4-chloro-phenyl)-5-oxo-1,5-dihydro-4H-1,2,4-triazol-4-yl]-1,1,1-trifluoropropan-2-yl Dihydrogen Phosphate] | 100 | 100 | 100 | 100 | – | – | – | – | – | – | – | – | – | > 500 | > 500 | > 500
